Laboratory results as given in ChEMBL document CHEMBL1201862, “PubChem BioAssay data set” (2004).
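Method: 48-hour compound exposure of cells in 96-well plates, five concentrations, linear interpolation of endpoints. The concentration for 50% growth inhibition is given as GI50.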 Active and inactive are the calls of the source. Cut-off read from the data, not from the text of the source: active = GI50 up to about 1.1 µM and inactive = higher.

Tests used:
Experiment in all cases: NCI tumour cell line growth inhibition, 48 h
[1] = tested on: 786-0
[2] = tested on: A498
[3] = tested on: A549
[4] = tested on: ACHN
[5] = tested on: CAKI-1
[6] = tested on: CCRF-CEM
[7] = tested on: COLO 205
[8] = tested on: DLD-1
[9] = tested on: DMS-114
[10] = tested on: EKVX
[11] = tested on: HCC 2998
[12] = tested on: HCT-15
[13] = tested on: HL-60
[14] = tested on: HOP-62
[15] = tested on: HOP-92
[16] = tested on: HT-29
[17] = tested on: IGROV-1
[18] = tested on: K562
[19] = tested on: KM-20L2
[20] = tested on: KM12
[21] = tested on: LOX IMVI
[22] = tested on: LXFL 529
[23] = tested on: M14
[24] = tested on: M19-MEL
[25] = tested on: MOLT-4
[26] = tested on: Malme-3M
[27] = tested on: NCI-H226
[28] = tested on: NCI-H23
[29] = tested on: NCI-H460
[30] = tested on: NCI-H522
[31] = tested on: OVCAR-3
[32] = tested on: OVCAR-4
[33] = tested on: OVCAR-5
[34] = tested on: OVCAR-8
[35] = tested on: RPMI-8226
[36] = tested on: RXF 393
[37] = tested on: SF-268
[38] = tested on: SF-295
[39] = tested on: SF-539
[40] = tested on: SK-MEL-28
[41] = tested on: SK-MEL-2
[42] = tested on: SK-MEL-5
[43] = tested on: SK-OV-3
[44] = tested on: SN12C
[45] = tested on: SNB-75
[46] = tested on: SNB-78
[47] = tested on: SW-620
[48] = tested on: TK-10
[49] = tested on: U-251
[50] = tested on: UACC-257
[51] = tested on: UACC-62
[52] = tested on: UO-31
[53] = tested on: XF498
[54] = tested on: HCT-116
[55] = tested on: HOP-18
[56] = tested on: SNB-19
[57] = tested on: SR

O=C1CCC2(c3ccccc3)Nc3ncccc3N12 (configuration not stated)
GI50 [1]: > 100 µM (inactive)
GI50 [2]: > 100 µM (inactive)
GI50 [3]: > 100 µM (inactive)
GI50 [4]: > 100 µM (inactive)
GI50 [5]: > 100 µM (inactive)
GI50 [6]: > 100 µM (inactive)
GI50 [7]: > 100 µM (inactive)
GI50 [8]: > 100 µM (inactive)
GI50 [9]: > 100 µM (inactive)
GI50 [10]: > 100 µM (inactive)
GI50 [11]: > 100 µM (inactive)
GI50 [12]: > 100 µM
GI50 [13]: > 100 µM (inactive)
GI50 [14]: > 100 µM (inactive)
GI50 [15]: > 100 µM (inactive)
GI50 [16]: > 100 µM (inactive)
GI50 [17]: > 100 µM (inactive)
GI50 [18]: > 100 µM (inactive)
GI50 [19]: > 100 µM (inactive)
GI50 [20]: > 100 µM (inactive)
GI50 [21]: > 100 µM (inactive)
GI50 [22]: > 100 µM (inactive)
GI50 [23]: > 100 µM (inactive)
GI50 [24]: > 100 µM (inactive)
GI50 [25]: > 100 µM (inactive)
GI50 [26]: > 100 µM (inactive)
GI50 [27]: > 100 µM (inactive)
GI50 [28]: > 100 µM (inactive)
GI50 [29]: > 100 µM (inactive)
GI50 [30]: > 100 µM (inactive)
GI50 [31]: > 100 µM (inactive)
GI50 [32]: > 100 µM (inactive)
GI50 [33]: > 100 µM (inactive)
GI50 [34]: > 100 µM (inactive)
GI50 [35]: > 100 µM (inactive)
GI50 [36]: > 100 µM (inactive)
GI50 [37]: > 100 µM (inactive)
GI50 [38]: > 100 µM (inactive)
GI50 [39]: > 100 µM (inactive)
GI50 [40]: > 100 µM (inactive)
GI50 [41]: > 100 µM (inactive)
GI50 [42]: > 100 µM (inactive)
GI50 [43]: > 100 µM (inactive)
GI50 [44]: > 100 µM (inactive)
GI50 [45]: 61.9 µM (inactive)
GI50 [46]: > 100 µM (inactive)
GI50 [47]: > 100 µM (inactive)
GI50 [48]: > 100 µM (inactive)
GI50 [49]: > 100 µM (inactive)
GI50 [50]: > 100 µM (inactive)
GI50 [51]: > 100 µM (inactive)
GI50 [52]: > 100 µM (inactive)
GI50 [53]: > 100 µM (inactive)

C/C(=N\Nc1nnc(S)n1N)c1c(O)cc(C)oc1=O
GI50 [1]: > 100 µM (inactive)
GI50 [2]: > 100 µM (inactive)
GI50 [3]: > 100 µM (inactive)
GI50 [4]: > 100 µM (inactive)
GI50 [5]: > 100 µM (inactive)
GI50 [6]: > 100 µM (inactive)
GI50 [8]: > 100 µM (inactive)
GI50 [10]: > 100 µM (inactive)
GI50 [11]: > 100 µM (inactive)
GI50 [54]: > 100 µM (inactive)
GI50 [12]: > 100 µM
GI50 [13]: > 100 µM (inactive)
GI50 [55]: > 100 µM (inactive)
GI50 [14]: > 100 µM (inactive)
GI50 [15]: > 100 µM (inactive)
GI50 [16]: > 100 µM (inactive)
GI50 [18]: > 100 µM (inactive)
GI50 [19]: > 100 µM (inactive)
GI50 [20]: > 100 µM (inactive)
GI50 [21]: > 100 µM (inactive)
GI50 [22]: > 100 µM (inactive)
GI50 [23]: > 100 µM (inactive)
GI50 [24]: > 100 µM (inactive)
GI50 [25]: > 100 µM (inactive)
GI50 [26]: > 100 µM (inactive)
GI50 [27]: > 100 µM (inactive)
GI50 [28]: > 100 µM (inactive)
GI50 [29]: > 100 µM (inactive)
GI50 [30]: > 100 µM (inactive)
GI50 [32]: 99.3 µM (inactive)
GI50 [34]: > 100 µM (inactive)
GI50 [37]: > 100 µM (inactive)
GI50 [38]: > 100 µM (inactive)
GI50 [39]: > 100 µM (inactive)
GI50 [40]: > 100 µM (inactive)
GI50 [41]: > 100 µM (inactive)
GI50 [43]: > 100 µM (inactive)
GI50 [44]: > 100 µM (inactive)
GI50 [56]: > 100 µM (inactive)
GI50 [45]: > 100 µM (inactive)
GI50 [46]: > 100 µM (inactive)
GI50 [57]: > 100 µM (inactive)
GI50 [47]: > 100 µM (inactive)
GI50 [48]: > 100 µM (inactive)
GI50 [49]: > 100 µM (inactive)
GI50 [50]: > 100 µM (inactive)
GI50 [51]: > 100 µM (inactive)
GI50 [52]: > 100 µM (inactive)

COc1ccc([C@@]2(O)c3c(ccc(O)c3OC)[C@H]2OC)c(OC)c1
GI50 [1]: 41.8 µM (inactive)
GI50 [2]: > 100 µM (inactive)
GI50 [3]: 85.1 µM (inactive)
GI50 [4]: 86.1 µM (inactive)
GI50 [5]: 35.7 µM (inactive)
GI50 [6]: 36.6 µM (inactive)
GI50 [7]: 44.2 µM (inactive)
GI50 [8]: 47.3 µM (inactive)
GI50 [9]: 22.1 µM (inactive)
GI50 [10]: > 100 µM (inactive)
GI50 [11]: 44.2 µM (inactive)
GI50 [54]: 33.5 µM (inactive)
GI50 [13]: 31.6 µM (inactive)
GI50 [14]: > 100 µM (inactive)
GI50 [15]: 53.6 µM (inactive)
GI50 [16]: 37.2 µM (inactive)
GI50 [17]: > 100 µM (inactive)
GI50 [18]: 36.5 µM (inactive)
GI50 [19]: 66.5 µM (inactive)
GI50 [20]: 39.4 µM (inactive)
GI50 [22]: 30.2 µM (inactive)
GI50 [23]: > 100 µM (inactive)
GI50 [24]: 48.5 µM (inactive)
GI50 [25]: 34.7 µM (inactive)
GI50 [26]: > 100 µM (inactive)
GI50 [27]: > 100 µM (inactive)
GI50 [28]: 34.6 µM (inactive)
GI50 [29]: > 100 µM (inactive)
GI50 [30]: 28.8 µM (inactive)
GI50 [31]: 68.2 µM (inactive)
GI50 [32]: 67.9 µM (inactive)
GI50 [33]: > 100 µM (inactive)
GI50 [34]: 51.5 µM (inactive)
GI50 [35]: 30.1 µM (inactive)
GI50 [37]: 75.9 µM (inactive)
GI50 [38]: 29.2 µM (inactive)
GI50 [40]: 47.8 µM (inactive)
GI50 [41]: 63.4 µM (inactive)
GI50 [42]: 48.6 µM (inactive)
GI50 [43]: 28.6 µM (inactive)
GI50 [44]: 71.8 µM (inactive)
GI50 [56]: > 100 µM (inactive)
GI50 [45]: 39.6 µM (inactive)
GI50 [57]: 35.6 µM (inactive)
GI50 [47]: 46.6 µM (inactive)
GI50 [48]: 27.1 µM (inactive)
GI50 [49]: 45.8 µM (inactive)
GI50 [50]: > 100 µM (inactive)
GI50 [51]: > 10 µM (inactive)
GI50 [52]: 69.3 µM (inactive)
GI50 [53]: 41.7 µM (inactive)
